The source of these data is publication PMC7384330 (Neuropharmacology, 2018).

In data set [1] the target is T1, human oxytocin receptor (OXTR) (Homo sapiens, UniProt P30559).
T1 sequence (P30559 1-389): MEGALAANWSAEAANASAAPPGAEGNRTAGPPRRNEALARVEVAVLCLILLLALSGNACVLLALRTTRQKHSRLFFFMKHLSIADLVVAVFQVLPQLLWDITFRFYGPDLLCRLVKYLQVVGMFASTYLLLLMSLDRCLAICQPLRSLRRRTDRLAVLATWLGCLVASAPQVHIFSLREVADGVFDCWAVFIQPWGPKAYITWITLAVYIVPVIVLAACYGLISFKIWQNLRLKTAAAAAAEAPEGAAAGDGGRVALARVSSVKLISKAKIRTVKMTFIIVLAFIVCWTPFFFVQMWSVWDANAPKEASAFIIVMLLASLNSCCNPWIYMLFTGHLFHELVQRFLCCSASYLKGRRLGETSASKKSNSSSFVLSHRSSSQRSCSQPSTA
In words: Fluorescence-based intracellular calcium mobilization assay. The data set is classed as cell-based.

The target in data set [2] is T2, OXTR (β-arrestin recruitment) (Homo sapiens, UniProt P30559).
T2 sequence (P30559 1-389): T1 sequence (P30559 1-389)
The data set is classed as cell-based.

In data set [3] the target is T2, OXTR (β-arrestin recruitment). Description: PathHunter eXpress β-Arrestin GPCR Kit, enzyme fragment complementation assay. The data set is classed as cell-based.
A further data set addresses T3, human OXTR (Homo sapiens, UniProt P30559).
T3 sequence (P30559 1-389): T1 sequence (P30559 1-389)
Description: IP3 accumulation assay. Format: cell-based.

For data set [4], the target named is T4, human Avpr1b vasopressin receptor (Homo sapiens, UniProt P47901).
T4 sequence (P47901 1-424): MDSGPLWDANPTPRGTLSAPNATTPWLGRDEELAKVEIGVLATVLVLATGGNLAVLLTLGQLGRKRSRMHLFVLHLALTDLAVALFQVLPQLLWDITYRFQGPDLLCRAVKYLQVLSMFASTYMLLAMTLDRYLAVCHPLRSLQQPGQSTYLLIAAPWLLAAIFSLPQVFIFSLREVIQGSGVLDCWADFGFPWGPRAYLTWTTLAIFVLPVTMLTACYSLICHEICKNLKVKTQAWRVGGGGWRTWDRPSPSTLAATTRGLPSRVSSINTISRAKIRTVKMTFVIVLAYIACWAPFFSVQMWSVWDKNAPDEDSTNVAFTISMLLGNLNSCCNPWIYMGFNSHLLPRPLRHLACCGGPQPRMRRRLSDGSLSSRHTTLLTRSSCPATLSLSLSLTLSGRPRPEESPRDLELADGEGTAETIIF
Description: Calcium mobilization assay, CHO-V1b. The data set is classed as cell-based. For orientation: A change in cytosolic calcium serves as a functional read-out for many receptors and channels.

Data set [5] concerns human Avpr1a vasopressin receptor. In words: Calcium mobilization assay, CHO-V1a. The data set is classed as cell-based. The settings on record: Supplemental Fig. 1.
In data set [6] the test system is human Avpr2 vasopressin receptor. Description: Calcium mobilization assay, CHO-V2. The data set is classed as cell-based. The settings on record: Supplemental Fig. 1.
Another data set deals with wild-type CHO cells. In words: Calcium response in wild-type CHO cells. The data set is classed as cell-based. The settings on record: Supplemental Fig. 2.
For data set [7], the target named is T5, muscarinic acetylcholine receptor M2 (Homo sapiens, UniProt P08172).
T5 sequence (P08172 1-466): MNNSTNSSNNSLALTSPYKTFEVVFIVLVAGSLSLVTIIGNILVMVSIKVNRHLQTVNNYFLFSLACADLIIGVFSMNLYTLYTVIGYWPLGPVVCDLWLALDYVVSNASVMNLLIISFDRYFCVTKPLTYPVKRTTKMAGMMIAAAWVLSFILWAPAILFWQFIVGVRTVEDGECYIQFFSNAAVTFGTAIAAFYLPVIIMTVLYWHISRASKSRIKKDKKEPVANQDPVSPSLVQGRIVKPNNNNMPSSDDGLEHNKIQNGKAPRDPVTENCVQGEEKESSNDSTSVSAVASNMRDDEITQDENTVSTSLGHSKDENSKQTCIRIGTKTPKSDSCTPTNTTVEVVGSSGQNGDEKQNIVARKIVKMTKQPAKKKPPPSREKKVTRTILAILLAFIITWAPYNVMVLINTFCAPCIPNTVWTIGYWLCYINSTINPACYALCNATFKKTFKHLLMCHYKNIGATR
Description: NIMH PDSP GPCR receptor binding screen, M2.

Data set [8] deals with muscarinic acetylcholine receptor M3 (Homo sapiens, UniProt P20309). In words: NIMH PDSP GPCR receptor binding screen, M3.
For data set [9], the target named is T6, muscarinic acetylcholine receptor M4 (Homo sapiens, UniProt P08173).
T6 sequence (P08173 1-479): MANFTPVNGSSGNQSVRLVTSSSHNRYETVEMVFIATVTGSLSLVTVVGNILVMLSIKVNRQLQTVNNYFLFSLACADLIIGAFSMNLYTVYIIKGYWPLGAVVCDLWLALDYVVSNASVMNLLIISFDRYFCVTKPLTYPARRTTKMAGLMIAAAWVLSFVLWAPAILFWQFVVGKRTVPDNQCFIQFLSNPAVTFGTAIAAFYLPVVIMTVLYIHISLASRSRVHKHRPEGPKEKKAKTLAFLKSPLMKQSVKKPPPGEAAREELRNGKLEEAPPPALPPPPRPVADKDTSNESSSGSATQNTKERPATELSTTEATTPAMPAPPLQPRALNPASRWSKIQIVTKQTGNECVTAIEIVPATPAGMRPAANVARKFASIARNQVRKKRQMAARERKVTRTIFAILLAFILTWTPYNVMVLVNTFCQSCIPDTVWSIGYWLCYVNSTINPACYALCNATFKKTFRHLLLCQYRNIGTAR
Description: NIMH PDSP GPCR receptor binding screen, M4.

The test system of another data set is other human receptors. In words: NIMH PDSP GPCR receptor binding screen, other receptors. The settings on record: complete set of GPCRs available through NIMH PDSP.
In data set [10] the test system is BALB/cByJ mice. Description: Three-chamber social choice test after subchronic regimen. The settings on record: subchronic. Format: in vivo, mouse.
The subject of data set [11] is BALB/cByJ mice. Description: Marble-burying assay, BALB/cByJ. Format: in vivo, mouse.
Data set [12] has as its system OXTR. Particulars: ref Pitt et al., 2004, cited from earlier work.
Data set [13] deals with OXTR. The settings on record: ref Pitt et al., 2004, cited from earlier work. The source holds these as a separate data set.
For data set [14], the target named is Avpr1a vasopressin receptor. Particulars: ref Frantz et al., 2010, cited from earlier work.
Data set [15] addresses T7, muscarinic acetylcholine receptor M5 (Homo sapiens, UniProt P08912).
T7 sequence (P08912 1-532): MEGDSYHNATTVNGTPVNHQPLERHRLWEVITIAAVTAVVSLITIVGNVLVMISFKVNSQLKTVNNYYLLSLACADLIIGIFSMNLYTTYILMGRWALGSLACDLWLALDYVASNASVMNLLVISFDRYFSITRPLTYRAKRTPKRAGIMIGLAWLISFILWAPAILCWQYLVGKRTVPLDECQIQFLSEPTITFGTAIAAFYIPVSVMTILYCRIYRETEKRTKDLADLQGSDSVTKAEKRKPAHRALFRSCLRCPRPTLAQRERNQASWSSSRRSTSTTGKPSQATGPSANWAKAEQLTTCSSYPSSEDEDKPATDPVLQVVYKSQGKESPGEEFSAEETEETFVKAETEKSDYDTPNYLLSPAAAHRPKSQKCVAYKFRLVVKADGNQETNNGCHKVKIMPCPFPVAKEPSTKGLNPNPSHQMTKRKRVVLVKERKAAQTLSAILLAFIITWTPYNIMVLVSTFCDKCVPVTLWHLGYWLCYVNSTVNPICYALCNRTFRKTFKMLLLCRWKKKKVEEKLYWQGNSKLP
In words: NIMH PDSP GPCR receptor binding screen, M5.

Another data set deals with rodents. The settings on record: ref Ring and colleagues 2006, 2010; cited from earlier work.
Another data set concerns rats. The settings on record: ref de Wied et al., 1987; cited from earlier work.

“Also recorded” adds a separate entry of the source. Read-outs that look alike come from different tables or passages of the source. Some results are limits rather than exact numbers.

Chain of muscarinic acetylcholine receptor M3 (P20309 whole entry): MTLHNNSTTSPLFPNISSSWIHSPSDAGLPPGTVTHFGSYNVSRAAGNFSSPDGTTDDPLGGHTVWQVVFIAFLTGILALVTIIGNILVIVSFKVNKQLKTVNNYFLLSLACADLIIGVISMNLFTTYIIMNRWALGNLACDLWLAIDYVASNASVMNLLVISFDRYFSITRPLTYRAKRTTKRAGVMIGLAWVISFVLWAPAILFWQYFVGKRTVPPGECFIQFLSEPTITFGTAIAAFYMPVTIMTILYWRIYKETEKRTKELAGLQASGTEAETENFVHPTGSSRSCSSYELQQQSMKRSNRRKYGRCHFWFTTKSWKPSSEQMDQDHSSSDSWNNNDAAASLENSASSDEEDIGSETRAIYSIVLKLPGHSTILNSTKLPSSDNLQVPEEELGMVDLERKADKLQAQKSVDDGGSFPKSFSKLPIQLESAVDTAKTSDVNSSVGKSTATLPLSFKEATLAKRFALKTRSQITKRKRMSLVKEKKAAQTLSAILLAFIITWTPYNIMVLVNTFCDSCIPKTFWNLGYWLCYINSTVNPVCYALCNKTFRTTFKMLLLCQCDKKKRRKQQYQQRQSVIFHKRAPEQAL

Broadly, the EC50 is the concentration at which the effect is half-maximal. A word on the Ki: it is the equilibrium dissociation constant of an inhibitor or competing ligand from its target. As to `Cc1cc(C(=O)N2Cc3cnn(C)c3Nc3ccccc32)ccc1CNC(=O)N1CCC[C@H]1C(=S)N1CCCN(C)CC1` [TC-OT-39, (2S)-N-[[4-[(4,10-Dihydro-1-methylpyrazolo[3,4-b][1,5]benzodiazepin-5(1H)-yl)carbonyl]-2-methylphenyl]methyl]-2-[(hexahydro-4-methyl-1H-1,4-diazepin-1-yl)thioxomethyl]-1-pyrrolidinecarboxamide], the “Efficacy (% OXT Response), FLIPR TETRA Ca2+ Release” value in data set [1] (Table 1, oxytocin response as 100%) is recorded as 102%. The “agonist character at human OXTR” value in data set [1] (calcium mobilization / Gq signaling) is given as “moderately potent full agonist at the human OXTR; also recorded: efficacy comparable to that of oxytocin for Gq signaling”. For the same compound, the EC50 in data set [2] was 0.31 ± 0.26 µM; in [3] it was 0.48 µM; on human OXTR it was 0.89 ± 0.09 µM; in [4], 4.3 ± 0.07 µM; in the data set with OXTR [12] (read-out: EC50, OXTR gene reporter assay) it was 0.033 µM; with OXTR [13] (read-out: EC50, OXTR IP3 accumulation), 0.667 µM. Besides, in data set [2] (oxytocin response as 100%), the “Efficacy (% OXT Response), DiscoveRx β-Arrestin” value was found to be 51 ± 6%. Further, in data set [3] (enzyme fragment complementation assay, CHO cells), the “agonist character for β-arrestin recruitment” value is “reduced efficacy for β-arrestin recruitment; also recorded: only a partial agonist of β-arrestin recruitment”. The “Efficacy (% OXT Response), DiscoveRx Express β-Arrestin” value in [3] (oxytocin response as 100%, run as single points only) is on record as 48%. Moreover, the Emax on human OXTR (read-out: maximum efficacy, IP3 accumulation) was 67 ± 4%. In [4] (compared to vasopressin), the “efficacy at human Avpr1b” value was 74 ± 2%. In addition, the “activation of human Avpr1a” value in data set [5] (CHO-V1a) is listed as “did not activate the human Avpr1a”. Moreover, in data set [5], the “inverse agonism at Avpr1a” value is “appears to be an inverse agonist at Avpr1a”. The “activation of human Avpr2” value in data set [6] is “did not activate the human Avpr1a or Avpr2 receptors”. In addition, the “response of wild-type CHO cells” value in the data set on wild-type CHO cells is “did not induce any response”. Further, the Ki was greater than 1 µM in data set [7]; greater than 1 µM in [8]; greater than 1 µM in data set [9]; 0.33 µM in [14] (read-out: KI at Avpr1a, antagonist); greater than 1 µM in data set [15]. Moreover, the “binding to other human receptors” value with other human receptors is “no significant binding to other human receptors”. The “emergence of sociability at 14 days, TC-OT-39” value in the data set with BALB/cByJ mice [10] (30 and 50 mg/kg IP, 14 days after final injection) is on record as “no evidence for the emergence of increased sociability at the 14-day time point”. For the same compound, in the data set on BALB/cByJ mice [11] (TC-OT-39 50 mg/kg IP, 50 min before test, F(1,14)=6.18, p=0.0261), the “marble burying, BALB/cByJ, 50 mg/kg” value is given as “comparable decreases in marble burying”. Moreover, the “sedative-like effects, 75 mg/kg” value in the data set on BALB/cByJ mice [11] (TC-OT-39 75 mg/kg IP, acute, not further tested) is on record as “overt sedative-like effects”. Moreover, the “agonist character, OXTR gene reporter assay” value in the data set with OXTR [12] was “full agonist”. In the data set on OXTR [13], the “agonist character, OXTR IP3 accumulation” value is on record as “partial agonist”. Besides, in [14], the “character at Avpr1a” value is recorded as “antagonist of the Avpr1a vasopressin receptor”.
Regarding `Cc1cc(C(=O)N2Cc3cnn(C)c3Nc3ccccc32)ccc1CNC(=O)N1CCN(Cc2cc(O)cc(O)c2)CC1` [WAY-267464], in the data set on rodents, the “anxiolytic-like effects, rodent assays” value is reported as “comparable anxiolytic-like effects in rodent assays”.
With Asn-Cyt-Pro-Leu-Gly-NH2 [OT(5-9)], in the data set with BALB/cByJ mice [10] (1 mg/kg IP, Supplemental Fig. 4D, E), the “sociability, OT(5-9) 1 mg/kg” value was “failed to reverse social deficits”. Further, the “sociability, OT(5-9) 2.0 mg/kg” value in the data set with BALB/cByJ mice [10] (2.0 mg/kg IP, Supplemental Fig. 5) is “failed to reveal prosocial efficacy”. Also, the “digging responses in marble-burying assay, oxytocin metabolites” value with BALB/cByJ mice [11] (acute IP, 50 min before test, Supplemental Fig. 3B, C) is listed as “neither OT(4-9) nor OT(5-9) altered digging responses in the marble-burying assay”. In addition, the “potency on avoidance learning relative to oxytocin” value in the data set on rats is on record as “greater potency than oxytocin itself on specific aspects of avoidance learning in rats”.
